The assay has as its target EGFR (human) (UniProt P00533).
Sequence of EGFR (human) (P00533 whole entry, looked up): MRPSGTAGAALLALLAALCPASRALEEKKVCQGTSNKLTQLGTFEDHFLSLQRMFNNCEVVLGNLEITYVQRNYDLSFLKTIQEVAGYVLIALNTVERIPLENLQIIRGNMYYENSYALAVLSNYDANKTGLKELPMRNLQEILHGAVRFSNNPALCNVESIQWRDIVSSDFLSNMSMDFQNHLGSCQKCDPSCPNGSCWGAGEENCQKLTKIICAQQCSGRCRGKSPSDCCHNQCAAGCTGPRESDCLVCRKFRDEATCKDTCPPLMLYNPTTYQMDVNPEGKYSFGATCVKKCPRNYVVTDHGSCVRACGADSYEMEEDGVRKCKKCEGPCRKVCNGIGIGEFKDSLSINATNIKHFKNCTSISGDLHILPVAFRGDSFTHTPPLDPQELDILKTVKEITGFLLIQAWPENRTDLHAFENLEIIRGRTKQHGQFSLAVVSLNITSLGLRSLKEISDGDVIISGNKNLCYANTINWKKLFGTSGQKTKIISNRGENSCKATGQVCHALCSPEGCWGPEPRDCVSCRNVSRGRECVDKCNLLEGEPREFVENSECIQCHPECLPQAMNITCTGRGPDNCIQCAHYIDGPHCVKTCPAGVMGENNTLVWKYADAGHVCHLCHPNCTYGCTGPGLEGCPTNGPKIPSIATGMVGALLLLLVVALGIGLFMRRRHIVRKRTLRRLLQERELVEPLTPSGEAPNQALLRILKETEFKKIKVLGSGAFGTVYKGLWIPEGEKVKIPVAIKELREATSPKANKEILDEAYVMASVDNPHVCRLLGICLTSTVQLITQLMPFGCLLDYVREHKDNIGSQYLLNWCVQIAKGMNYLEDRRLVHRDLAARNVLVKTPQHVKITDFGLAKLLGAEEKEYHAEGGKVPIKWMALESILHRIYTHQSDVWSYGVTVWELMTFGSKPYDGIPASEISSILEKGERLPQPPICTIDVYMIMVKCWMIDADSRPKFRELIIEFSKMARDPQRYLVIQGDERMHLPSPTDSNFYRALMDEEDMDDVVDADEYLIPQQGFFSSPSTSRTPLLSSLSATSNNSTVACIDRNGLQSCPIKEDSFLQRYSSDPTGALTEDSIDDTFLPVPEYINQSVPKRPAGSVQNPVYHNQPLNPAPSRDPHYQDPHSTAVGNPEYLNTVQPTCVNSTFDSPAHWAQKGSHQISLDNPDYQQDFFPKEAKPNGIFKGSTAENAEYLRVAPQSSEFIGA
Broadly, the Ki is the dissociation constant of the complex between target and ligand, obtained from inhibition or displacement. High values mean weaker binding, low ones tighter binding. Compound `Brc1ccc2[nH]c3nccc(NCc4ccccc4)c3c2c1` came in with a Ki of 43 nM. This counts as double-digit nanomolar.
For `c1ccc2c(CNc3ccnc4[nH]c5ccccc5c34)cccc2c1` the value was 360 nM.
Turning to `COc1ccc(CNc2ccnc3[nH]c4ccccc4c23)cc1`, the Ki was 450 nM.
In the case of `C[C@@H](Nc1ccnc2[nH]c3ccccc3c12)c1ccccc1`, the Ki came to 840 nM.
Next, `Clc1cccc(CNc2ccnc3[nH]c4ccccc4c23)c1`: 99 nM; `c1ccc(CCNc2ccnc3[nH]c4ccccc4c23)cc1`: 1040 nM; `Clc1ccc(CNc2ccnc3[nH]c4ccccc4c23)cc1`: 1040 nM.
For `c1ccc(CNc2ccnc3[nH]c4ccccc4c23)cc1` the value was 85 nM; for `C[C@H](Nc1ccnc2[nH]c3ccccc3c12)c1ccccc1`, 30 nM; for `c1cncc(CNc2ccnc3[nH]c4ccccc4c23)c1`, 3830 nM.

These data come from the Kinase Knowledgebase extract (Sharma et al. 2016).
